The source made the active and inactive calls. The calls are words filed in the database; no cut-off is given here.
Experiments:
HeLa = assay: Antiproliferative activity against human HeLa cells after 72 hrs by MTT assay; type: functional, cell-based
[1] = Antiproliferative activity against human K562/4 cells after 72 hrs by MTT assay; details: K562/4, 72 h
L1210 = assay: cells; details: Mus musculus, L1210, 48 h
Description: Antiproliferative activity against mouse L1210 cells after 48 hrs by MTT assay

K562 [2] = assay: cells; details: Homo sapiens, K562, 72 h
Description: Antiproliferative activity against human K562 cells after 72 hrs by MTT assay

cells = details: Homo sapiens, HCT-116, 72 h
Description: Antiproliferative activity against human HCT116 cells after 72 hrs by MTT assay

[3] = target: T1, DNA topoisomerase 1 (Homo sapiens) (UniProt P11387); assay: Poisoning activity at topoisomerase 1 (unknown origin) using 3'-[32P]dGTP labelled 117bp oligonucleotide assessed as induction of DNA cleavage incubated for 20 mins by SDS-PAGE analysis
T1 sequence (whole entry): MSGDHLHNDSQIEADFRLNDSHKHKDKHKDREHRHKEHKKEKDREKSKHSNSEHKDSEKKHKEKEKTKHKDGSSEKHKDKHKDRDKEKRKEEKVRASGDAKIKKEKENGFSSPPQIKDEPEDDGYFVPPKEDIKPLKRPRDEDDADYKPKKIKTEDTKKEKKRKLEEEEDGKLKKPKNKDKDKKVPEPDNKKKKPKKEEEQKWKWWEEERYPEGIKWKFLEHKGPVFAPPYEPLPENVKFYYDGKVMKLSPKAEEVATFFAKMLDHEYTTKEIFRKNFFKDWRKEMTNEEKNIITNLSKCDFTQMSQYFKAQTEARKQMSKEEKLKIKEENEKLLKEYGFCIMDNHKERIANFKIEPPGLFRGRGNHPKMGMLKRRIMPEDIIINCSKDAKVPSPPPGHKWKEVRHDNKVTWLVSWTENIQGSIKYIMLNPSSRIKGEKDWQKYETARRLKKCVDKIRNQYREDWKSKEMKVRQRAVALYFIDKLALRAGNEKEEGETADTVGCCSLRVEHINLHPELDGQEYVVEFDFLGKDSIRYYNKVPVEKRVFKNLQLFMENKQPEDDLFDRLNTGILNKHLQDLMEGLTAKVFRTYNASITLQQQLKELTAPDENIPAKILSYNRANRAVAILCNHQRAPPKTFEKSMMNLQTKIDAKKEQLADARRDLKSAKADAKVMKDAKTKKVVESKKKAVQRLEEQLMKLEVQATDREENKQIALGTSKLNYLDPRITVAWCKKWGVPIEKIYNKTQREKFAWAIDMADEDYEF

[4] = target: T1, DNA topoisomerase 1 (Homo sapiens); assay: Poisoning activity at topoisomerase 1 (unknown origin) using 3'-[32P]dGTP labelled 117bp oligonucleotide assessed as induction of DNA cleavage at 1 uM incubated for 20 mins by SDS-PAGE analysis
K562 [5] = assay: Binding affinity to P-gp in human K562 cells assessed as drug accumulation at 1 uM incubated for 1 to 24 hrs by flow cytometry; type: cell-based
K562/4 = assay: Binding affinity to P-gp in human K562/4 cells assessed as drug accumulation at 1 uM incubated for 1 to 24 hrs by flow cytometry; type: cell-based
Calf thymus DNA = assay: Binding affinity to calf thymus DNA at 5 uM by fluorescence assay; type: nucleic-acid assay; details: Bos taurus

SMILES: Cc1oc2c(O)c3c(c(O)c2c1C(=O)N1CCCC(N)C1)C(=O)c1ccccc1C3=O (centres undefined)
- IC50 (HeLa): 1400 nM
- IC50 [1]: 700 nM
- IC50 (L1210): 5600 nM
- IC50 (K562 [2]): 850 nM
- IC50 (cells): 1500 nM

SMILES: Cc1oc2c(O)c3c(c(O)c2c1C(=O)N1CCC(N)CC1)C(=O)c1ccccc1C3=O
- IC50 (HeLa): 9700 nM
- IC50 [1]: 400 nM
- IC50 (L1210): 13000 nM
- IC50 (K562 [2]): 2100 nM
- IC50 (cells): 2000 nM

SMILES: Cc1oc2c(O)c3c(c(O)c2c1C(=O)N[C@H]1CCNC1)C(=O)c1ccccc1C3=O
- IC50 (HeLa): 64000 nM
- IC50 [1]: 800 nM
- IC50 (L1210): 6500 nM
- IC50 (K562 [2]): 750 nM
- IC50 (cells): 250 nM

SMILES: O=C1c2ccccc2C(=O)c2c1c(O)c1[nH]cc(CN[C@@H]3CCNC3)c1c2O
- IC50 [1]: 400 nM
- Activity [3]: Active
- IC50 (L1210): 70 nM
- IC50 (cells): 1600 nM

SMILES: Cc1oc2c(O)c3c(c(O)c2c1C(=O)N1CCNCC1)C(=O)c1ccccc1C3=O
- IC50 (HeLa): 3100 nM
- IC50 [1]: 2800 nM
- IC50 (L1210): 4100 nM
- IC50 (K562 [2]): 1300 nM
- IC50 (cells): 2300 nM

SMILES: CC[C@@]1(O)C(=O)OCc2c1cc1n(c2=O)Cc2cc3ccccc3nc2-1
- Activity [4]: Active

SMILES: Cc1oc2c(O)c3c(c(O)c2c1C(=O)N1CCN(C)CC1)C(=O)c1ccccc1C3=O
- IC50 (HeLa): 104000 nM
- IC50 [1]: 5900 nM
- IC50 (L1210): 82000 nM
- IC50 (K562 [2]): 1600 nM
- IC50 (cells): 11500 nM

SMILES: Cc1oc2c(O)c3c(c(O)c2c1C(=O)NC1CN2CCC1CC2)C(=O)c1ccccc1C3=O (centres undefined)
- IC50 (HeLa): 12000 nM
- IC50 [1]: 650 nM
- IC50 (L1210): 2400 nM
- IC50 (K562 [2]): 600 nM
- IC50 (cells): 900 nM

SMILES: Cc1oc2c(O)c3c(c(O)c2c1C(=O)NC1CCCNC1)C(=O)c1ccccc1C3=O (centres undefined)
- IC50 (HeLa): 3400 nM
- IC50 [1]: 350 nM
- IC50 (L1210): 3000 nM
- IC50 (K562 [2]): 600 nM
- IC50 (cells): 1600 nM

SMILES: Cc1oc2c(O)c3c(c(O)c2c1C(=O)N[C@@H]1CCNC1)C(=O)c1ccccc1C3=O
- IC50 (HeLa): 9500 nM
- IC50 [1]: 750 nM
- IC50 (L1210): 5400 nM
- IC50 (K562 [2]): 700 nM
- IC50 (cells): 300 nM

SMILES: Cc1oc2c(O)c3c(c(O)c2c1C(=O)N1CCNC(C)C1)C(=O)c1ccccc1C3=O (centres undefined)
- IC50 (HeLa): 900 nM
- IC50 [1]: 3000 nM
- IC50 (L1210): 3700 nM
- IC50 (K562 [2]): 900 nM
- IC50 (cells): 1300 nM

SMILES: Cc1oc2c(O)c3c(c(O)c2c1C(=O)NC1CCNCC1)C(=O)c1ccccc1C3=O
- IC50 (HeLa): 11000 nM
- IC50 [1]: 4000 nM
- IC50 (L1210): 5100 nM
- IC50 (K562 [2]): 2700 nM
- IC50 (cells): 1200 nM

SMILES: COc1cc2c3c(n(CCCNCCO)c(=O)c2cc1OC)-c1cc2c(cc1C3=O)OCO2
- Activity [4]: Active

SMILES: COc1cccc2c1C(=O)c1c(O)c3c(c(O)c1C2=O)C[C@@](O)(C(=O)CO)C[C@@H]3O[C@H]1C[C@H](N)[C@H](O)[C@H](C)O1
- Activity (K562 [5]): inactive
- Activity (K562/4): Active
- Activity (Calf thymus DNA): Active

SMILES: Cc1oc2c(O)c3c(c(O)c2c1C(=O)N1CCNCC1C)C(=O)c1ccccc1C3=O (centres undefined)
- IC50 (HeLa): 700 nM
- IC50 [1]: 4800 nM
- IC50 (L1210): 3700 nM
- IC50 (K562 [2]): 1100 nM
- IC50 (cells): 1600 nM

Source: ChEMBL document CHEMBL3774310, “Discovery of antitumor anthra[2,3-b]furan-3-carboxamides: Optimization of synthesis and evaluation of antitumor properties” (Eur J Med Chem, 2016)
